Experimental data from the NIST ThermoML archive (doi:10.1021/je200039y).
± gives the expanded uncertainty stated by the source. Values belong to the compound of their own block, whether it stands above or below them.

Key:
[1] = refractive index (Na D-line) (dimensionless); settings: 298 K; 101.33 kPa; Liquid; Standard Abbe refractometry
[2] = Liquid
[3] = 350.3 K, Closed cell (Static) method
[4] = 350.43 K, Closed cell (Static) method
[5] = 343.15 K, Ebulliometric method (Recirculating still)

- vapor or sublimation pressure ([2]; 350.54 K, Closed cell (Static) method): 1269.5 ± 5.5 kPa
Structure (SMILES): CC(C)C [2-methylpropane]

- vapor or sublimation pressure [2, 4]: 1154.3 ± 5 kPa
Structure (SMILES): C=C(C)C [2-methylpropene]

- vapor or sublimation pressure [2, 3]: 929.2 ± 4 kPa
Structure (SMILES): C/C=C/C [(E)-2-butene]

- vapor or sublimation pressure ([2]; 350.36 K, Closed cell (Static) method): 951.7 ± 4.1 kPa
Structure (SMILES): CCCC [butane]

- vapor or sublimation pressure [2, 5]: 72.5 ± 0.6 kPa
- refractive index [1]: 1.3593 ± 0.0007
Structure (SMILES): CCO [ethanol]

More lines, now with the values behind:

Structure (SMILES): Cc1ccccc1C [1,2-dimethylbenzene]
- refractive index [1]: 1.5026 ± 0.0007

Structure (SMILES): CSSC [2,3-dithiabutane]
- vapor or sublimation pressure ([2]; 343.15 K, Closed cell (Static) method): 27.8 ± 0.4 kPa
- vapor or sublimation pressure [2, 3]: 36.1 ± 0.8 kPa
- vapor or sublimation pressure ([2]; 350.38 K, Closed cell (Static) method): 36 ± 0.8 kPa
- vapor or sublimation pressure [2, 4]: 35.8 ± 0.8 kPa
- vapor or sublimation pressure ([2]; 350.55 K, Closed cell (Static) method): 36.1 ± 0.8 kPa
- refractive index [1]: 1.5226 ± 0.0007

Structure (SMILES): CCOC(C)(C)C [2-ethoxy-2-methylpropane]
- vapor or sublimation pressure [2, 5]: 92.9 ± 0.7 kPa
- refractive index [1]: 1.373 ± 0.0007
